Legend:
[1] = molecular target: T1, Steroid 17-alpha-hydroxylase/17,20 lyase (Homo sapiens, UniProt P05093); experiment: Inhibition of CYP17 in human testicular microsomes using 17alpha-hydroxypregnenolone as substrate assessed as decrease in DHEA levels after 90 mins by ELISA; design: species or system Testis
T1 sequence (P05093 whole entry): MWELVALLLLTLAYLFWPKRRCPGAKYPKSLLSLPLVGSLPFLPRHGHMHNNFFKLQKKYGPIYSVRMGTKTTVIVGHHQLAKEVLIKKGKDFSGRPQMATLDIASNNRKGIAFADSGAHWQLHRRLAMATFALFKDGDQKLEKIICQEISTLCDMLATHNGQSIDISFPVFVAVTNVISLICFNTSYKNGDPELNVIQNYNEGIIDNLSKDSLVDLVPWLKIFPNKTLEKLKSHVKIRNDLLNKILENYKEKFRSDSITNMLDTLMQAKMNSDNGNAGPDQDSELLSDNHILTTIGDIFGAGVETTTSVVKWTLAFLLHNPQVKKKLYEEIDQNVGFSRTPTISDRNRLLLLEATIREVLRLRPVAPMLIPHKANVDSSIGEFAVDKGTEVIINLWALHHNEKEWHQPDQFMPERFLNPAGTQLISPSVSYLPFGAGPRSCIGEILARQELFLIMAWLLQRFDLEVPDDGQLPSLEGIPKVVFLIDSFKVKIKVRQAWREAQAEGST

[2] = molecular target: T1, Steroid 17-alpha-hydroxylase/17,20 lyase; experiment: Inhibition of CYP17 in human testicular microsomes using 17alpha-hydroxypregnenolone as substrate assessed as decrease in DHEA levels at 10 nM after 90 mins by ELISA relative to control; design: species or system Testis; details: 1.5 h
[3] = Half life in human liver microsomes at 1 uM by LC-MS/MS analysis
[4] = Half life in rat liver microsomes at 1 uM by LC-MS/MS analysis
[5] = molecular target: T1, Steroid 17-alpha-hydroxylase/17,20 lyase; experiment: Inhibition of CYP17 in human H295R cells assessed as decrease in testosterone levels after 24 hrs by ELISA; type: cell-based
[6] = molecular target: T2, CYP21 (steroid 21-hydroxylase) (Homo sapiens, UniProt P08686); experiment: Inhibition of human CYP21 transfected in HEK293 cells assessed as decrease in conversion of progesterone to 11-deoxycorticosterone preincubated for 5 hrs followed by progesterone addition measured after 20 hrs by ELISA; type: cell-based; design: concentration or dose not given beside the values; details: HEK293 cells transfected with human CYP21, probe progesterone
T2 sequence (P08686 whole entry): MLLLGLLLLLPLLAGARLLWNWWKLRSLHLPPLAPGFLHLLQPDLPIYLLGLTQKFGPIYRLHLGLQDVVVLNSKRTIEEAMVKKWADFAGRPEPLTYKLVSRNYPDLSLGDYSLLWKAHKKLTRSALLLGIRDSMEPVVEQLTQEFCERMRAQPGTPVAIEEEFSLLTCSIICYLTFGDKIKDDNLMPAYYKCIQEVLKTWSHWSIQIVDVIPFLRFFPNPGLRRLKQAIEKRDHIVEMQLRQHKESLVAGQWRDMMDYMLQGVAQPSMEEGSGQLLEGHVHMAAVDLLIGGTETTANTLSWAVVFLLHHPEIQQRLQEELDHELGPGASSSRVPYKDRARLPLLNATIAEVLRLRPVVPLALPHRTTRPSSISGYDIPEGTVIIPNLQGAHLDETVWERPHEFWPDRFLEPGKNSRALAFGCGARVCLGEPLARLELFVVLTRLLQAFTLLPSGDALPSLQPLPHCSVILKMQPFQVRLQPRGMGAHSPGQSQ

SMILES	IC50 [1] [nM]	inhibition at 0.01 µM [2] [%]	half-life at 1 µM [3] [min]	half-life at 1 µM [4] [min]	IC50 [5] [nM]	inhibition at 20 h [6] [%]
C[C@]12CC[C@H]3[C@@H](CC[C@H]4C[C@@H](O)CC[C@@]43C)C1=CC=C2c1cccnc1	≤ 11	≥ 80	≥ 50			
CC1C(O)CC[C@@]2(C)C1CC[C@@H]1[C@@H]2CC[C@]2(C)C(c3cccnc3)=CC[C@@H]12 (stereo not given in full)	≤ 11				≤ 15	10 to 50
C[C@]12CCC(=O)CCC1=CC[C@@H]1[C@@H]2CC[C@]2(C)C(n3ccnc3)=CC[C@@H]12	≤ 11	≥ 80	1 to 50			
C[C@]12CC[C@H]3[C@@H](CC=C4C[C@@H](O)CC[C@@]43C)C1=CC=C2n1ccnc1	≤ 11	≥ 80	≥ 50			
CC1=C2CC[C@@H]3[C@H](CC[C@]4(C)C(c5cccnc5)=CC[C@@H]34)[C@@]2(C)CCC1=O	≤ 11				≤ 15	≥ 50
CC(C)C(=O)N[C@H]1CC[C@@]2(C)C(CC[C@@H]3[C@@H]2CC[C@]2(C)C(c4cccnc4)=CC[C@@H]32)C1 (stereo not given in full)			1 to 50		≤ 15	≥ 50
C[C@]12CCCCC1=CC[C@@H]1[C@@H]2CC[C@]2(C)C(c3cccnc3)=CC[C@@H]12		50 to 80	1 to 10	1 to 10		
CC(=O)N[C@@H]1CC[C@@]2(C)C(=CC[C@H]3C4=CC=C(c5cccnc5)[C@@]4(C)CC[C@@H]32)C1			1 to 50		≤ 15	≥ 50
Cc1cncc(C2=CC[C@H]3[C@@H]4CC(=O)C5CCCC[C@]5(C)[C@H]4CC[C@]23C)c1 (stereo not given in full)	≤ 11		1 to 10	1 to 10		
C[C@@]1(O)CC[C@@]2(C)C(CC[C@@H]3[C@@H]2CC[C@]2(C)C(c4cncc(F)c4)=CC[C@@H]32)C1 (stereo not given in full)	≤ 11		1 to 50		≤ 15	

Further lines, with some results ahead:

IC50 [1] [nM]	inhibition at 0.01 µM [2] [%]	half-life at 1 µM [3] [min]	half-life at 1 µM [4] [min]	SMILES	IC50 [5] [nM]	inhibition at 20 h [6] [%]
≤ 11	≥ 80	≥ 50	1 to 10	C[C@]12CC(=O)C[C@@H]1CC[C@@H]1[C@@H]2CC[C@]2(C)C(n3ccnc3)=CC[C@@H]12		
≤ 11	50 to 80	1 to 10	1 to 10	Cc1cncc(C2=CC[C@H]3[C@@H]4CC[C@H]5COCCC[C@]5(C)[C@H]4CC[C@]23C)c1		
≤ 11	50 to 80	1 to 10	1 to 10	COc1cncc(C2=CC[C@H]3[C@@H]4CC[C@H]5CCOCC[C@]5(C)[C@H]4CC[C@]23C)c1		
≤ 11	50 to 80	10 to 60	10 to 60	Cc1cn(C2=CC[C@H]3[C@@H]4CCC5=CC(=O)NCC[C@]5(C)[C@H]4CC[C@]23C)cn1		
≤ 11	≥ 80	1 to 10	1 to 10	C[C@]12CCCOCC1CCC1C2CC[C@]2(C)C(c3cccnc3)=CC[C@@H]12 (single isomer, unassigned)		
≤ 11	≥ 80	≥ 50	10 to 60	C[C@]12CCNC(=O)C[C@@H]1CC[C@@H]1[C@@H]2CC[C@]2(C)C(n3ccnc3)=CC[C@@H]12		
	≥ 80	1 to 10	1 to 10	C[C@]12CCNC(=O)C=C1CC[C@@H]1[C@@H]2CC[C@]2(C)C(n3ncnn3)=CC[C@@H]12		
≤ 11	50 to 80	1 to 10	1 to 10	CN1C(=O)COC[C@@]2(C)C1CC[C@@H]1[C@@H]2CC[C@]2(C)C(c3cccnc3)=CC[C@@H]12 (stereo not given in full)		
≤ 11	≥ 80	1 to 10	1 to 10	COc1cncc(C2=CC[C@H]3[C@@H]4CCN5C(=O)CCCC[C@]5(C)[C@H]4CC[C@]23C)c1		
